Experimental data taken from patent US9289411B2, “Anti-HCV agent” (NATIONAL UNIVERSITY CORPORATION OKAYAMA UNIVERSITY, priority 2011, dated 2016).
Values joined by “and” are separate entries in the source; they are usually repeats but may differ in a detail not shown here. Equal entries are not always repeated.

Legend:
[1] = test system: HCV-RNA replication in ORL8 cells; experiment: Effect of antioxidant vitamin E on anti-HCV activity in ORL8 cells (luciferase activity); format: cell-based, HCV genotype 1b; conditions: for canceling of the anti-HCV activity by vitamin E: vitamin E 10 μM
Method: The effect of addition of vitamin E on the anti-HCV activity of N-89 was examined using ORL8 cells. An experimental scale and schedule are the same as those in Example 1.
N-89 and vitamin E were simultaneously added so that the concentrations of N-89 and vitamin E were set to 0.5 μM and 10 μM, respectively. The luciferase activity was measured 72 hours after the culture.
The effect of addition of vitamin E on the anti-HCV activity of N-251 was examined using ORL8 cells. An experimental scale and schedule are the same as those in Example 1.
N-251 and vitamin E were simultaneously added so that the concentrations of N-251 and vitamin E were set to 0.5 μM and 10 μM, respectively. The luciferase activity was measured 72 hours after the culture.
The effect of addition of vitamin E on the anti-HCV activity of artemisinin was examined using ORL8 cells. An experimental scale and schedule are the same as those in Example 1.
Artemisinin and vitamin E were simultaneously added so that the concentrations of artemisinin and vitamin E were set to 100 μM and 10 μM, respectively. The luciferase activity was measured 72 hours after the culture.

[2] = test system: HCV-RNA replication in ORL8 cells (HCV-O strain, Li23-derived); experiment: microbe, parasite or virus in culture
Source text: (§1) Assay systems using OR6 cells (HCV-O strain), 1B-4R cells (HCV-1B-4 strain), and AH1R cells (HCV-AH1R strain) as HuH-7 cell-derived full-length HCV-RNA-replicating cells, and ORL8 cells (HCV-O strain), ORL11 cells (HCV-O strain), 1B-4RL cells (HCV-1B-4 strain), and KAH5RL cells (HCV-KAH5 strain) as Li23 cell-derived full-length HCV-RNA-replicating cells were used for the quantitative analysis of anti-HCV activity and evaluation of a cytotoxic effect in the present invention. The three cell lines, i.e., the 1B-4R cells, the 1B-4RL cells, and the KAH5RL cells have been disclosed in WO 2010/026965 A1. The AH1R cells may be produced with reference to Mori K et al., BBRC, 371:104-109, 2008 and WO 2010/026965 A1. In addition, all the HCV strains belong to genotype 1b.
(§2) As necessary, an increase or decrease in expression level of an HCV protein (core protein) was examined by a Western blot method.
(§3) In the measurement of the renilla luciferase activity and the measurement by the WST-1 method, experiments were performed in three wells independent of each other, and their means and standard deviation were calculated.
The anti-HCV activities of N-89 and N-251 were examined using ORL8 cells and the EC50 values were calculated. An experimental scale and schedule are the same as those in Example 1.
N-89 and N-251 were added so as to achieve concentrations of 5 μM, a 2-fold dilution series from 5 μM (2.5, 1.3, 0.63, 0.31, 0.16, and 0.08 μM), and 0. The luciferase activities were measured 72 hours after the culture.
(§4) The anti-HCV activity of artemisinin was examined using OR6 cells and ORL8 cells and the EC50 values were calculated. An experimental scale and schedule are the same as those in Example 1.
(§5) Artemisinin was added so as to achieve concentrations of 100 μM, a 2-fold dilution series from 100 μM (50, 25, 13, 6.3, 3.1, and 1.6 μM), and 0. The luciferase activities were measured 72 hours after the culture.

[3] = test system: HuH-7-derived HCV-replicon-replicating cells; conditions: Paeshuyse J et al., BBRC 2006; cited from earlier work
[4] = Cytotoxic effect, WST-1 cell proliferation assay in OR6 cells; conditions: human
Source text: as §1, §3
After 24 hours, N-89 was added so as to achieve concentrations of 20 μM, a 2-fold dilution series from 20 μM (10, 5, 2.5, 1.3, 0.63, and 0.31 μM), and 0, or N-251 was added so as to achieve concentrations of 10 μM, a 2-fold dilution series from 10 μM (5, 2.5, 1.3, 0.63, 0.31, and 0.16 μM), and 0.
The cytotoxic effect of artemisinin was examined using OR6 and ORL8 cells and the CC50 values were calculated. […]

[5] = Cytotoxic effect, WST-1 cell proliferation assay in ORL8 cells; conditions: human
Source text: as §1, §3
The cytotoxic effects of N-89 and N-251 were examined using ORL8 cells and the CC50 values were calculated. An experimental scale and schedule are the same as those in Example 1.
N-89 and N-251 were added so as to achieve concentrations of 5 μM, a 2-fold dilution series from 5 μM (2.5, 1.3, 0.63, 0.31, 0.16, and 0.08 μM), and 0. The WST-1 cell proliferation assay was performed 72 hours after the culture.
The cytotoxic effect of artemisinin was examined using OR6 and ORL8 cells and the CC50 values were calculated. An experimental scale and schedule are the same as those in Example 1. Artemisinin was added so as to achieve concentrations of 400 μM, a 2-fold dilution series from 400 μM (200, 100, 50, 25, and 13 μM), and 0. The WST-1 cell proliferation assay was performed 72 hours after the culture.

[6] = test system: HCV-RNA replication in OR6 cells (HCV-O strain, HuH-7-derived); experiment: microbe, parasite or virus in culture
Source text: as §1, §2, §3
OR6 cells, which had been cultured in general medium for subculture, were plated onto a 24-well plate (2×10^4 cells in 1 mL of medium for […] cell line per well) and cultured. After 24 hours, N-89 was added so as to achieve concentrations of 20 μM, a 2-fold dilution series from 20 μM (10, 5, 2.5, 1.3, 0.63, and 0.31 μM), and 0, or N-251 was added so as to achieve concentrations of 10 μM, a 2-fold dilution series from 10 μM (5, 2.5, 1.3, 0.63, 0.31, and 0.16 μM), and 0. The renilla luciferase activities were measured 72 hours after the culture. N-89 and N-251 were diluted with DMSO.
as §4, §5

[7] = test system: HCV-RNA replication in ORL8 cells; experiment: Influence of oxidizing agents KNO3 and NaClO4 on anti-HCV activity in ORL8 cells; format: cell-based, HCV genotype 1b; conditions: 10 μM, 72 hours
Method: The effects of addition of KNO3 and NaClO4 on the anti-HCV activity of N-89 were examined using ORL8 cells.
N-89 and KNO3 or NaClO4 were simultaneously added so that the concentrations of N-89 and KNO3 or NaClO4 were set to 0.5 μM and 10 μM, respectively. The luciferase activity was measured 72 hours after the culture.

vitamin E [reference compound]
luciferase activity, vitamin E alone ([1]; vitamin E 10 μM alone, 72 hours): 217% and 194%
increase of luciferase activity, vitamin E alone ([1]; vitamin E 10 μM alone, 72 hours (Comparative Example 2)): about 3 fold

C[C@@H]1CC[C@H]2[C@@H](C)C(=O)O[C@@H]3O[C@@]4(C)CC[C@@H]1[C@]32OO4 [artemisinin, reference compound]
luciferase activity, artemisinin in combination with vitamin E ([1]; 100 μM + vitamin E 10 μM, 72 hours): 53%
luciferase activity, artemisinin alone ([1]; 100 μM, 72 hours): 23%
canceling of the anti-HCV activity by vitamin E [1]: not canceled
EC50 ([2]; Hepatitis C virus, ORL8, 72 h): 23 µM
SI (CC50/EC50) ([2]; ORL8 cells): 16
anti-HCV activity [3]: weak
CC50 at 72 h [4]: 380 µM
CC50 at 72 h [5]: 368 µM
EC50 ([6]; Hepatitis C virus, OR6, 72 h): 81 µM
anti-HCV activity (judgement) ([6]; OR6 and ORL8 cells): very weak anti-HCV activity
SI (CC50/EC50) ([6]; OR6 cells): 5

IFN-α
canceling of the anti-HCV activity by vitamin E [1]: slightly found

[Na+].[O-][Cl+3]([O-])([O-])[O-] [NaClO4]
change in luciferase activity, oxidizing agent alone [7]: no change

O=[N+]([O-])[O-].[K+] [KNO3]
change in luciferase activity, oxidizing agent alone [7]: no change

CC(C)n1c(/C=C/C(O)CC(O)CC(=O)O)c(-c2ccc(F)cc2)c2ccccc21 (centres unmarked) [FLV, Fluvastatin, reference compound]
CC50 at 72 h [5]: 21 µM
